Laboratory results: publication PMC4532424, “The Novel Cyclophilin Inhibitor CPI-431-32 Concurrently Blocks HCV and HIV-1 Infections via a Similar Mechanism of Action” (PLoS ONE, 2015)
Where two headings read alike, the source gives them in different places. Non-standard residues stand in square brackets, D forms with d. Residues, ends and D or L forms follow the SMILES beside them. NMeThr(4R-Me,4-(CH2)6NHAc) = CN[C@H](C(=O)O)[C@H](O)[C@H](C)CCCCCCNC(C)=O; NMeL = CN[C@@H](CC(C)C)C(=O)O; NMeV = CN[C@H](C(=O)O)C(C)C; dNMeA = CN[C@H](C)C(=O)O; Abu = CC[C@H](N)C(=O)O

What was measured:
Assay type in all cases: cell-based
[1] = tested on: HIV-1 protease (saquinavir)-resistant; experiment: HIV-1 infection of TZM reporter cells, β-galactosidase; conditions: read-out: EC50, inhibition of HIV-1 infection
Source text: (§1) the reverse transcriptase inhibitor-resistant HIV-1 variant (nevirapine-resistant N119), the protease inhibitor-resistant HIV-1 variant (saquinavir-resistant), and the naturally occurring primary ALV-resistant variant CMU08 (contributed by Kenrad Nelson) were obtained from the AIDS Research and Reference Reagent Program. Lab-adapted wild-type NL4.3 and the ALV-resistant V86P/H87Q/I91V/M96I NL4.3 capsid mutant variant were described previously. For infection scoring, TZM-bl target cells (contributed by J. C. Kappes, X. Wu, and Tranzyme, Inc.) obtained through the AIDS Research and Reference Reagent Program were exposed to wild-type or drug-resistant HIV-1 variants (1 ng of p24) together with increasing concentrations of DMSO or CypI. HIV-1 infection was quantified 48 h post-infection by measuring β-galactosidase activity in cell lysates.
(§2) We then tested the efficacy of CPI-431-32 and ALV against a panel of drug-resistant HIV-1 and HCV variants. Specifically, we measured CPI-431-32 EC50 on a reverse transcriptase inhibitor-resistant HIV-1 variant (nevirapine-resistant), a protease inhibitor-resistant HIV-1 variant (saquinavir-resistant), and two partially ALV-resistant HIV-1 variants—a lab-adapted resistant variant (V86P/H87Q/I91V/M96I capsid mutant) and a naturally occurring primary partially resistant variant (CMU08). […] HIV-1 infection was quantified 48 h post-infection by measuring β-galactosidase activity in cell lysates.

[2] = tested on: HIV-1 ALV-resistant (CMU8); experiment: as above; conditions: read-out: EC50, inhibition of HIV-1 infection
Source text: as §1, §2

[3] = tested on: HIV-1 ALV-resistant (NL4.3 V86P/H87Q/I91V/M96I); experiment: as above; conditions: read-out: EC50, inhibition of HIV-1 infection
Source text: as §1, §2

[4] = tested on: HIV-1 reverse transcriptase (nevirapine)-resistant; experiment: as above; conditions: read-out: EC50, inhibition of HIV-1 infection
Source text: as §1, §2

HIV-1 wild-type (NL4.3) = experiment: as above; conditions: read-out: EC50, inhibition of HIV-1 infection
Source text: as §1, §2

HIV-1 JR-CSF = experiment: Established HIV-1 infection of CD4+ T-lymphocytes, single versus daily drug addition, p24 ELISA; conditions: 2 μM three days post-infection then daily 0.5 μM; after fifteen days
Procedure: CD4+ T-lymphocytes (A) and Huh7.5.1 cells (B) (0.5 x 10^6 cells) (triplicates) were exposed to HIV-1 JR-CSF and HCV JFH-1. Drugs (2 μM) were added 3 h pre-viral exposure (top panels) or 3 days post-viral exposure (bottom panels). Viral replications were monitored by HIV-1 p24 and HCV core ELISAs. C. CD4+ T-lymphocytes (0.5 x 10^6 cells) (triplicates) were exposed to HIV-1 JR-CSF. Drugs were initially added 3 days post-viral exposure (2 μM) and then daily (0.5 μM). Viral replications were monitored by HIV-1 p24 and HCV core ELISAs. […] D. Model for the HIV-1/HCV co-culture system.

HIV-1 NL4.3 = experiment: HIV-1 nuclear import analysis, integrase Western blot of cytoplasmic and nuclear extracts; conditions: 2 μM; 6 h post-infection; nuclear extract
Procedure: CD4+ HeLa cells (10^7 cells) were infected with NL4.3 (1 μg of p24) derived from 293T-transfected cells in the presence or absence of CPI-431-32 (2 μM). Six hours post-infection, cells were fractionated using the Thermo Scientific NE-PER nuclear and cytoplasmic extraction kit (Life Technologies). Cytoplasmic and nuclear extracts were analyzed by Western blotting using anti-HIV-1 integrase (Abcam), anti-CypA (Abcam) and anti-histone H2 (Abcam) antibodies.
Fig 4 CPI-431-32 blocks HIV-1 reverse transcription and nuclear import. TZM cells were infected with DNase-treated NL4-3 HIV-1 together with DMSO or CPI-431-32 (2 μM). Target cell DNA was isolated at the indicated times and was used to detect early (A) and late HIV-1 reverse transcripts (B). TZM cells were infected with NL4.3 in the presence or absence of CPI-431-32 (2 μM). Six hours post-infection, cells were fractionated and cytoplasmic and nuclear extracts analyzed by Western blotting (C). […]
To further elucidate the effects of CypA-capsid disruption, we analyzed how CPI-431-32 affects the distribution of incoming HIV-1 cores within the first 6 hours of infection as determined by the presence of the HIV-1 integrase protein. TZM cells were infected with HIV-1 NL4.3 for 6 h in the absence or presence of CPI-431-32, then fractionated into cytosolic and nuclear extracts for quantitation of HIV-1 integrase by Western blotting. […]

[5] = Human immunodeficiency virus 1, TZM, 48 h

Structure (SMILES)	EC50 ([1]; HIV-1 protease (saquinavir)-resistant, TZM cells, 48 h post-infection) [nM]	EC50 ([2]; HIV-1 ALV-resistant (CMU8), TZM cells, 48 h post-infection) [nM]	EC50 ([3]; HIV-1 ALV-resistant (NL4.3 V86P/H87Q/I91V/M96I), TZM cells, 48 h post-infection) [nM]	EC50 ([4]; HIV-1 reverse transcriptase (nevirapine)-resistant, TZM cells, 48 h post-infection) [nM]	EC50 (HIV-1 wild-type (NL4.3); 48 h post-infection) [nM]	Effect on HIV-1 replication (in words) (HIV-1 JR-CSF)	Nuclear accumulation of HIV-1 integrase (in words) (HIV-1 NL4.3)	EC50 [1, 5] [nM]	EC50 [2, 5] [nM]	EC50 [3, 5] [nM]	EC50 [4, 5] [nM]	EC50 (HIV-1 wild-type (NL4.3); Human immunodeficiency virus 1, 48 h post-infection) [nM]
CC[C@@H]1NC(=O)[C@H]([C@H](O)[C@H](C)CCCCCCNC(C)=O)N(C)C(=O)[C@H](C(C)C)N(C)C(=O)[C@H](CC(C)C)N(C)C(=O)[C@H](CC(C)C)N(C)C(=O)[C@@H](C)NC(=O)[C@H](C)NC(=O)[C@H](CC(C)C)N(C)C(=O)[C@H](C(C)C)NC(=O)[C@H](CC(C)C)N(C)C(=O)[C@@H](C)N(C)C1=O [CPI-431-32] (cyclo(A[dA][NMeL][NMeL][NMeV][NMeThr(4R-Me,4-(CH2)6NHAc)][Abu][dNMeA][NMeL]V[NMeL]))	70 ± 20	2100 ± 100	900 ± 100	30 ± 10	50 ± 10	almost totally repressed HIV-1 replication	completely prevented the nuclear accumulation of integrase					
C/C=C/C[C@@H](C)[C@@H](O)[C@H]1C(=O)N[C@@H](CC)C(=O)N(C)[C@H](C)C(=O)N(CC)[C@@H](C(C)C)C(=O)N[C@@H](C(C)C)C(=O)N(C)[C@@H](CC(C)C)C(=O)N[C@@H](C)C(=O)N[C@H](C)C(=O)N(C)[C@@H](CC(C)C)C(=O)N(C)[C@@H](CC(C)C)C(=O)N(C)[C@@H](C(C)C)C(=O)N1C [ALV, Alisporivir]								160 ± 20	5600 ± 400	2300 ± 300	100 ± 20	120 ± 30
